Reference: the NIST ThermoML archive (doi:10.1021/je200922s)
Numbers after ± are expanded uncertainties.

Assay: xn = mol fraction of the nth substance listed
Details: 101 kPa, Liquid; for viscosity: Capillary tube (Ostwald / Ubbelohde) method; for mass density: Vibrating tube method

CCn1cc[n+](C)c1.O=S(=O)([N-]S(=O)(=O)C(F)(F)F)C(F)(F)F + CCO
Details	mass density [kg/m3]	viscosity [mPa·s]
293.15 K, x1 = 0.1008	1038.4 ± 0.3	1.612 ± 0.065
293.15 K, x1 = 0.1971	1179.41 ± 0.3	2.78 ± 0.12
293.15 K, x1 = 0.3	1276.68 ± 0.26	4.6 ± 0.19
293.15 K, x1 = 0.3992	1341.77 ± 0.28	7.429 ± 0.3
293.15 K, x1 = 0.5014	1391.85 ± 0.33	10.65 ± 0.43
293.15 K, x1 = 0.5955	1427.56 ± 0.39	13.87 ± 0.57
293.15 K, x1 = 0.6966	1458.64 ± 0.46	17.76 ± 0.72
293.15 K, x1 = 0.7982	1484.18 ± 0.53	21.8 ± 0.9
293.15 K, x1 = 0.9041	1506.32 ± 0.61	28.74 ± 1.2
298.15 K, x1 = 0.1008	1034.14 ± 0.3	1.478 ± 0.06
298.15 K, x1 = 0.1971	1175.21 ± 0.28	2.35 ± 0.096
298.15 K, x1 = 0.3	1272.19 ± 0.26	4.15 ± 0.17
298.15 K, x1 = 0.3992	1337.18 ± 0.28	6.479 ± 0.26
298.15 K, x1 = 0.5014	1387.12 ± 0.33	9.232 ± 0.38
298.15 K, x1 = 0.5955	1422.72 ± 0.39	12.05 ± 0.49
298.15 K, x1 = 0.6966	1453.69 ± 0.45	15.18 ± 0.62
298.15 K, x1 = 0.7982	1479.17 ± 0.53	18.7 ± 0.76
298.15 K, x1 = 0.9041	1501.31 ± 0.61	24.52 ± 1
303.15 K, x1 = 0.1008	1029.79 ± 0.3	1.25 ± 0.051
303.15 K, x1 = 0.1971	1170.59 ± 0.28	2.16 ± 0.088
303.15 K, x1 = 0.3	1267.5 ± 0.26	3.728 ± 0.15
303.15 K, x1 = 0.3992	1332.39 ± 0.28	5.697 ± 0.23
303.15 K, x1 = 0.5014	1382.49 ± 0.33	8.1 ± 0.33
303.15 K, x1 = 0.5955	1417.99 ± 0.38	10.31 ± 0.42
303.15 K, x1 = 0.6966	1448.78 ± 0.45	13.13 ± 0.54
303.15 K, x1 = 0.7982	1474.28 ± 0.52	16.12 ± 0.66
303.15 K, x1 = 0.9041	1496.34 ± 0.6	20.9 ± 0.86
308.15 K, x1 = 0.1008	1025.12 ± 0.3	1.12 ± 0.045
308.15 K, x1 = 0.1971	1166.55 ± 0.27	1.9 ± 0.077
308.15 K, x1 = 0.3	1263.4 ± 0.26	3.157 ± 0.13
308.15 K, x1 = 0.3992	1327.88 ± 0.28	5.055 ± 0.21
308.15 K, x1 = 0.5014	1377.68 ± 0.33	7.177 ± 0.29
308.15 K, x1 = 0.5955	1413.41 ± 0.38	9.109 ± 0.37
308.15 K, x1 = 0.6966	1443.98 ± 0.45	11.47 ± 0.47
308.15 K, x1 = 0.7982	1469.4 ± 0.52	14.04 ± 0.57
308.15 K, x1 = 0.9041	1491.39 ± 0.6	18.05 ± 0.74
313.15 K, x1 = 0.1008	1021.47 ± 0.3	1.101 ± 0.045
313.15 K, x1 = 0.1971	1162.51 ± 0.27	1.645 ± 0.067
313.15 K, x1 = 0.3	1259.31 ± 0.25	2.64 ± 0.11
313.15 K, x1 = 0.3992	1323.62 ± 0.28	4.404 ± 0.18
313.15 K, x1 = 0.5014	1372.99 ± 0.33	6.199 ± 0.25
313.15 K, x1 = 0.5955	1408.57 ± 0.38	7.954 ± 0.32
313.15 K, x1 = 0.6966	1439.3 ± 0.44	10.01 ± 0.41
313.15 K, x1 = 0.7982	1464.39 ± 0.51	12.34 ± 0.5
313.15 K, x1 = 0.9041	1486.41 ± 0.6	15.74 ± 0.64
318.15 K, x1 = 0.1008	1019.1 ± 0.3	1.001 ± 0.041
318.15 K, x1 = 0.1971	1159.51 ± 0.27	1.412 ± 0.057
318.15 K, x1 = 0.3	1255.23 ± 0.25	2.459 ± 0.1
318.15 K, x1 = 0.3992	1319.8 ± 0.28	3.945 ± 0.16
318.15 K, x1 = 0.5014	1368.71 ± 0.32	5.603 ± 0.23
318.15 K, x1 = 0.5955	1404 ± 0.38	7.141 ± 0.29
318.15 K, x1 = 0.6966	1434.53 ± 0.44	8.965 ± 0.36
318.15 K, x1 = 0.7982	1459.6 ± 0.51	10.93 ± 0.44
318.15 K, x1 = 0.9041	1481.54 ± 0.59	13.84 ± 0.56
323.15 K, x1 = 0.1008	1015.54 ± 0.3	0.987 ± 0.04
323.15 K, x1 = 0.1971	1156.54 ± 0.33	1.307 ± 0.053
323.15 K, x1 = 0.3	1252.11 ± 0.27	2.317 ± 0.094
323.15 K, x1 = 0.3992	1316.24 ± 0.28	3.656 ± 0.15
323.15 K, x1 = 0.5014	1364.61 ± 0.33	5.195 ± 0.21
323.15 K, x1 = 0.5955	1399.5 ± 0.38	6.5 ± 0.26
323.15 K, x1 = 0.6966	1429.97 ± 0.44	8.116 ± 0.33
323.15 K, x1 = 0.7982	1454.97 ± 0.51	9.799 ± 0.4
323.15 K, x1 = 0.9041	1476.73 ± 0.59	12.28 ± 0.5

CCn1cc[n+](C)c1.O=S(=O)([N-]S(=O)(=O)C(F)(F)F)C(F)(F)F + CN1CCCC1=O
Details	mass density [kg/m3]	viscosity [mPa·s]
293.15 K, x1 = 0.0978	1144.09 ± 0.36	3.344 ± 0.14
293.15 K, x1 = 0.1979	1228.99 ± 0.45	5.561 ± 0.23
293.15 K, x1 = 0.2957	1292.83 ± 0.51	8.637 ± 0.35
293.15 K, x1 = 0.395	1344.49 ± 0.56	12.04 ± 0.49
293.15 K, x1 = 0.493	1386.31 ± 0.59	15.84 ± 0.65
293.15 K, x1 = 0.5893	1420.55 ± 0.61	20.06 ± 0.82
293.15 K, x1 = 0.6917	1451.44 ± 0.63	24.72 ± 1
293.15 K, x1 = 0.798	1478.94 ± 0.65	29.72 ± 1.2
293.15 K, x1 = 0.9002	1502.24 ± 0.67	34.93 ± 1.4
298.15 K, x1 = 0.0978	1139.45 ± 0.35	3.026 ± 0.12
298.15 K, x1 = 0.1979	1224.19 ± 0.44	4.943 ± 0.2
298.15 K, x1 = 0.2957	1287.87 ± 0.5	7.604 ± 0.31
298.15 K, x1 = 0.395	1339.44 ± 0.55	10.45 ± 0.43
298.15 K, x1 = 0.493	1381.19 ± 0.59	13.6 ± 0.56
298.15 K, x1 = 0.5893	1415.41 ± 0.6	17.07 ± 0.7
298.15 K, x1 = 0.6917	1446.29 ± 0.62	20.87 ± 0.86
298.15 K, x1 = 0.798	1473.78 ± 0.65	24.7 ± 1
298.15 K, x1 = 0.9002	1497.09 ± 0.67	28.7 ± 1.2
303.15 K, x1 = 0.0978	1134.72 ± 0.35	2.754 ± 0.11
303.15 K, x1 = 0.1979	1219.33 ± 0.44	4.457 ± 0.18
303.15 K, x1 = 0.2957	1282.91 ± 0.5	6.749 ± 0.28
303.15 K, x1 = 0.395	1334.42 ± 0.55	9.159 ± 0.37
303.15 K, x1 = 0.493	1376.09 ± 0.58	11.82 ± 0.48
303.15 K, x1 = 0.5893	1410.27 ± 0.6	14.7 ± 0.6
303.15 K, x1 = 0.6917	1441.15 ± 0.62	17.85 ± 0.73
303.15 K, x1 = 0.798	1468.63 ± 0.64	21.05 ± 0.86
303.15 K, x1 = 0.9002	1491.96 ± 0.66	24.29 ± 1
308.15 K, x1 = 0.0978	1130.03 ± 0.34	2.519 ± 0.1
308.15 K, x1 = 0.1979	1214.47 ± 0.43	4.028 ± 0.16
308.15 K, x1 = 0.2957	1277.97 ± 0.49	6.033 ± 0.25
308.15 K, x1 = 0.395	1329.38 ± 0.54	8.092 ± 0.33
308.15 K, x1 = 0.493	1371 ± 0.58	10.37 ± 0.42
308.15 K, x1 = 0.5893	1405.15 ± 0.59	12.81 ± 0.52
308.15 K, x1 = 0.6917	1436.01 ± 0.61	15.44 ± 0.63
308.15 K, x1 = 0.798	1463.48 ± 0.64	18.24 ± 0.75
308.15 K, x1 = 0.9002	1486.83 ± 0.66	20.83 ± 0.85
313.15 K, x1 = 0.0978	1125.31 ± 0.34	2.314 ± 0.094
313.15 K, x1 = 0.1979	1209.6 ± 0.43	3.647 ± 0.15
313.15 K, x1 = 0.2957	1272.99 ± 0.49	5.43 ± 0.22
313.15 K, x1 = 0.395	1324.28 ± 0.54	7.19 ± 0.29
313.15 K, x1 = 0.493	1365.88 ± 0.58	9.174 ± 0.38
313.15 K, x1 = 0.5893	1399.96 ± 0.59	11.26 ± 0.46
313.15 K, x1 = 0.6917	1430.83 ± 0.61	13.44 ± 0.55
313.15 K, x1 = 0.798	1458.28 ± 0.63	15.76 ± 0.64
313.15 K, x1 = 0.9002	1481.67 ± 0.65	18.12 ± 0.74
318.15 K, x1 = 0.0978	1120.61 ± 0.34	2.13 ± 0.087
318.15 K, x1 = 0.1979	1204.73 ± 0.42	3.325 ± 0.14
318.15 K, x1 = 0.2957	1268 ± 0.48	4.916 ± 0.2
318.15 K, x1 = 0.395	1319.23 ± 0.53	6.44 ± 0.26
318.15 K, x1 = 0.493	1360.77 ± 0.57	8.18 ± 0.33
318.15 K, x1 = 0.5893	1394.81 ± 0.58	9.989 ± 0.41
318.15 K, x1 = 0.6917	1425.65 ± 0.6	11.83 ± 0.48
318.15 K, x1 = 0.798	1453.09 ± 0.63	13.78 ± 0.56
318.15 K, x1 = 0.9002	1476.54 ± 0.65	15.79 ± 0.65
323.15 K, x1 = 0.0978	1115.91 ± 0.33	1.98 ± 0.081
323.15 K, x1 = 0.1979	1199.83 ± 0.42	3.079 ± 0.12
323.15 K, x1 = 0.2957	1262.96 ± 0.48	4.481 ± 0.18
323.15 K, x1 = 0.395	1314.12 ± 0.53	5.816 ± 0.24
323.15 K, x1 = 0.493	1355.62 ± 0.57	7.344 ± 0.3
323.15 K, x1 = 0.5893	1389.73 ± 0.58	8.911 ± 0.36
323.15 K, x1 = 0.6917	1420.58 ± 0.6	10.51 ± 0.43
323.15 K, x1 = 0.798	1448.03 ± 0.62	12.31 ± 0.5
323.15 K, x1 = 0.9002	1471.41 ± 0.64	13.95 ± 0.57
